Data from US10308659B2, “Pyridine derivatives” (Hoffmann-La Roche Inc., priority 2013, dated 2019).

Key:
human CB1 receptors = human CB1 receptors (Homo sapiens (Human), UniProt P21554); assay: cAMP assay, CHO cells expressing human CB1 receptors; format: cell-based; details: functional cAMP assay, CHO cells expressing human CB1; read-out: EC50 CB1 human
Method: (§1) CHO cells expressing human CB1 or CB2 receptors are seeded 17-24 hours prior to the experiment 50.000 cells per well in a black 96 well plate with flat clear bottom (Corning Costar #3904) in DMEM (Invitrogen No. 31331), 1×HT supplement, with 10% fetal calf serum and incubated at 5% CO2 and 37° C. in a humidified incubator. The growth medium was exchanged with Krebs Ringer Bicarbonate buffer with 1 mM IBMX and incubated at 30° C. for 30 min. Compounds were added to a final assay volume of 100 μl and incubated for 30 min at 30° C. […] The time-resolved energy transfer is measured by a TRF reader (Evotec Technologies GmbH), equipped with a ND:YAG laser as excitation source. The plate is measured twice with the excitation at 355 nm and at the emission with a delay of 100 ns and a gate of 100 ns, total exposure time 10 s at 730 (bandwidth30 nm) or 645 nm (bandwidth 75 nm), respectively. The FRET signal is calculated as follows: FRET=T730-Alexa730-P(T645-B645) with P=Ru730-B730/Ru645-B645, where T730 is the test well measured at 730 nM, T645 is the test well measured at 645 nm, B730 and B645 are the buffer controls at 730 nm and 645 nm, respectively. cAMP content is determined from the function of a standard curve spanning from 10 μM to 0.13 nM cAMP.
(§2) EC50 values were determined using Activity Base analysis (ID Business Solution, Limited).

human CB2 receptors = human CB2 receptors (Homo sapiens (Human), UniProt P34972); assay: cAMP assay, CHO cells expressing human CB2 receptors; format: cell-based; details: functional cAMP assay, CHO cells expressing human CB2; read-out: EC50 CB2 human
Method: as §1, §2

Chain of human CB1 receptors (P21554 whole entry): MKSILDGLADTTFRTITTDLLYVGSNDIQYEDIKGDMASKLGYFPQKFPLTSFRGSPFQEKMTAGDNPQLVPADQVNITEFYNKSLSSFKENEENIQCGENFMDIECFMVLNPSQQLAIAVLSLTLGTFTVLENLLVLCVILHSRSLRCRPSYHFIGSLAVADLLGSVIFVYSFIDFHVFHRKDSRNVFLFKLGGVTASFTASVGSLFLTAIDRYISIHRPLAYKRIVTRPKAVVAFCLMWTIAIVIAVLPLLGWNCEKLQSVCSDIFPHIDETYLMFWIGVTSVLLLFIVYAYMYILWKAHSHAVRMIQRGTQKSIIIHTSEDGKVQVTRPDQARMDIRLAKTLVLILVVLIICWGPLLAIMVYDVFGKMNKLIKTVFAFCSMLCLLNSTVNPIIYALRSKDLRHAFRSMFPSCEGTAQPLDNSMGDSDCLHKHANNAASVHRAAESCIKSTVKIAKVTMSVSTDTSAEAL
Chain of human CB2 receptors (P34972 whole entry): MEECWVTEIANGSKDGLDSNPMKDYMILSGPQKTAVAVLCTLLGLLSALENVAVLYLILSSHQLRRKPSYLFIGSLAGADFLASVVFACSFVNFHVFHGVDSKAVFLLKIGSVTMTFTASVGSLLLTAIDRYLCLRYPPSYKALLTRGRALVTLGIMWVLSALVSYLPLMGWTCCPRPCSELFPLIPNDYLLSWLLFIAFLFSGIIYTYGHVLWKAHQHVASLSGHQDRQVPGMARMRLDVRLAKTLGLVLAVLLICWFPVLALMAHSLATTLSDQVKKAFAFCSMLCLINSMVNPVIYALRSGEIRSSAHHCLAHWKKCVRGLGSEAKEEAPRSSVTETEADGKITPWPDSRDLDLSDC

Structure (SMILES): CC1(c2nc(-c3cc(OCC(F)(F)F)c(C4CC4)cn3)no2)COC1 [Example 38, 3-[5-cyclopropyl-4-(2,2,2-trifluoroethoxy)pyridin-2-yl]-5-(3-methyloxetan-3-yl)-1,2,4-oxadiazole]
- EC50 (human CB1 receptors): > 10 µM
- EC50 (human CB2 receptors): 0.128 µM

Structure (SMILES): CCN1CCCC(Oc2cc(-c3noc(C(C)(C)C)n3)ncc2C2CC2)C1 (centres unmarked) [Example 100, 5-tert-butyl-3-[5-cyclopropyl-4-(1-ethylpiperidin-3-yl)oxypyridin-2-yl]-1,2,4-oxadiazole]
- EC50 (human CB1 receptors): > 10 µM
- EC50 (human CB2 receptors): 0.518 µM

Structure (SMILES): CC(C)(C)c1nc(-c2cc(Oc3ccc(F)cc3)c(C3(F)COC3)cn2)no1 [Example 110, 5-tert-butyl-3-[5-(3-fluorooxetan-3-yl)-4-(4-fluorophenoxy)pyridin-2-yl]-1,2,4-oxadiazole]
- EC50 (human CB1 receptors): > 10 µM
- EC50 (human CB2 receptors): 0.103 µM

Structure (SMILES): CC(C)(C)c1nc(-c2cc(OCC(F)(F)F)c(N3CC(F)(F)C3)cn2)no1 [Example 44, 5-tert-butyl-3-[5-(3,3-difluoroazetidin-1-yl)-4-(2,2,2-trifluoroethoxy)pyridin-2-yl]-1,2,4-oxadiazole]
- EC50 (human CB1 receptors): > 10 µM

Structure (SMILES): Cc1nc(COc2cc(-c3noc(C(C)(C)C)n3)ncc2C2CC2)c(C)o1 [Example 106, 5-tert-butyl-3-[5-cyclopropyl-4-[(2,5-dimethyl-1,3-oxazol-4-yl)methoxy]pyridin-2-yl]-1,2,4-oxadiazole]
- EC50 (human CB1 receptors): > 10 µM
- EC50 (human CB2 receptors): 0.128 µM

Structure (SMILES): CC(C)(C)c1nc(-c2cc(OCC3CC3)c(N3CCC34COC4)cn2)no1 [Example 35, 1-[6-(5-tert-butyl-1,2,4-oxadiazol-3-yl)-4-(cyclopropylmethoxy)pyridin-3-yl]-6-oxa-1-azaspiro[3.3]heptane]
- EC50 (human CB1 receptors): > 10 µM
- EC50 (human CB2 receptors): 0.0328 µM

Structure (SMILES): c1c(-c2noc(C3CNC3)n2)ncc(C2CC2)c1OCC1CC1 [Example 29, 5-(azetidin-3-yl)-3-[5-cyclopropyl-4-(cyclopropylmethoxy)pyridin-2-yl]-1,2,4-oxadiazole]
- EC50 (human CB1 receptors): > 10 µM
- EC50 (human CB2 receptors): 0.797 µM

Structure (SMILES): CC(C)(O)c1nc(-c2cc(OCC3CC3)c(C3CC3)cn2)no1 [Example 26, 2-[3-[5-cyclopropyl-4-(cyclopropylmethoxy)pyridin-2-yl]-1,2,4-oxadiazol-5-yl]propan-2-ol]
- EC50 (human CB1 receptors): > 10 µM

Structure (SMILES): COC1CN(c2cc(-c3noc(C(C)(C)C)n3)ncc2C2CC2)C1 [Example 81, 5-tert-butyl-3-[5-cyclopropyl-4-(3-methoxyazetidin-1-yl)pyridin-2-yl]-1,2,4-oxadiazole]
- EC50 (human CB1 receptors): > 10 µM
- EC50 (human CB2 receptors): 0.0211 µM

Structure (SMILES): CC(C)(C)c1nnc(-c2cc(OCC(F)(F)F)c(C3CC3)cn2)o1 [Example 113, 2-tert-butyl-5-[5-cyclopropyl-4-(2,2,2-trifluoroethoxy)pyridin-2-yl]-1,3,4-oxadiazole]
- EC50 (human CB1 receptors): > 10 µM

Structure (SMILES): Cc1cc(COc2cc(-c3noc(C(C)(C)C)n3)ncc2C2CC2)no1 [Example 107, 5-tert-butyl-3-[5-cyclopropyl-4-[(5-methyl-1,2-oxazol-3-yl)methoxy]pyridin-2-yl]-1,2,4-oxadiazole]
- EC50 (human CB1 receptors): > 10 µM
- EC50 (human CB2 receptors): 0.0958 µM

Structure (SMILES): CC(C)(C)c1nc(-c2cc(S(=O)(=O)C3CC3)c(C3CC3)cn2)no1 [Example 80, 5-tert-butyl-3-(5-cyclopropyl-4-cyclopropylsulfonylpyridin-2-yl)-1,2,4-oxadiazole]
- EC50 (human CB1 receptors): > 10 µM
- EC50 (human CB2 receptors): 0.0475 µM

Structure (SMILES): CC1(c2nc(-c3cc(OCC4CC4)c(C4CC4)cn3)no2)COC1 [Example 28, 3-[5-cyclopropyl-4-(cyclopropylmethoxy)pyridin-2-yl]-5-(3-methyloxetan-3-yl)-1,2,4-oxadiazole]
- EC50 (human CB1 receptors): > 10 µM
- EC50 (human CB2 receptors): 0.016 µM

Structure (SMILES): CC(C)(C)c1nc(-c2cc(OCC3COCCN3)c(C3CC3)cn2)no1 (centres unmarked) [Example 102, 3-[[2-(5-tert-butyl-1,2,4-oxadiazol-3-yl)-5-cyclopropylpyridin-4-yl]oxymethyl]morpholine]
- EC50 (human CB1 receptors): > 10 µM

Structure (SMILES): CC1(c2nc(-c3cc(OCC(F)(F)F)c(C4CC4)cn3)no2)CC1 [Example 34, 3-[5-cyclopropyl-4-(2,2,2-trifluoroethoxy)pyridin-2-yl]-5-(1-methylcyclopropyl)-1,2,4-oxadiazole]
- EC50 (human CB1 receptors): > 10 µM

Structure (SMILES): CC1(C)CN=C(c2cc(OCC(F)(F)F)c(C3CC3)cn2)O1 [Example 41, 2-[5-cyclopropyl-4-(2,2,2-trifluoroethoxy)pyridin-2-yl]-5,5-dimethyl-4H-1,3-oxazole]
- EC50 (human CB1 receptors): > 10 µM
- EC50 (human CB2 receptors): 0.0539 µM

Structure (SMILES): CC(C)(C)c1noc(-c2cc(OCC(F)(F)F)c(N3CC(F)(F)C3)cn2)n1 [Example 17, 3-tert-butyl-5-[5-(3,3-difluoroazetidin-1-yl)-4-(2,2,2-trifluoroethoxy)pyridin-2-yl]-1,2,4-oxadiazole]
- EC50 (human CB1 receptors): > 10 µM

Structure (SMILES): CC(C)(C)c1cnc(-c2cc(OCC3CC3)c(C3CC3)cn2)o1 [Example 65, 5-tert-butyl-2-[5-cyclopropyl-4-(cyclopropylmethoxy)pyridin-2-yl]-1,3-oxazole]
- EC50 (human CB1 receptors): 0.17 µM
- EC50 (human CB2 receptors): 0.0017 µM

Structure (SMILES): CCOCCOc1cc(-c2noc(C(C)(C)C)n2)ncc1C1CC1 [Example 83, 5-tert-butyl-3-[5-cyclopropyl-4-(2-ethoxyethoxy)pyridin-2-yl]-1,2,4-oxadiazole]
- EC50 (human CB1 receptors): > 10 µM
- EC50 (human CB2 receptors): 0.0301 µM

Structure (SMILES): CC(C)(C)c1nc(-c2cc(N3CC(F)(F)C(F)(F)C3)c(C3CC3)cn2)no1 [Example 74, 5-tert-butyl-3-[5-cyclopropyl-4-(3,3,4,4-tetrafluoropyrrolidin-1-yl)pyridin-2-yl]-1,2,4-oxadiazole]
- EC50 (human CB1 receptors): > 10 µM
- EC50 (human CB2 receptors): 0.0047 µM

Structure (SMILES): CC(C)(C)c1noc(-c2cc(OCC(F)F)c(C3CC3)cn2)n1 [Example 123, 3-tert-butyl-5-(5-cyclopropyl-4-(2,2-difluoroethoxy)pyridin-2-yl)-1,2,4-oxadiazole]
- EC50 (human CB1 receptors): > 10 µM
- EC50 (human CB2 receptors): 0.002 µM

Structure (SMILES): CC(C)(C)c1nc(-c2cc(OC3CCCNC3)c(C3CC3)cn2)no1 (centres unmarked) [Example 104, 5-tert-butyl-3-(5-cyclopropyl-4-piperidin-3-yloxypyridin-2-yl)-1,2,4-oxadiazole]
- EC50 (human CB1 receptors): > 10 µM
- EC50 (human CB2 receptors): 0.0698 µM

Structure (SMILES): CN1CCC[C@H]1COc1cc(-c2noc(C(C)(C)C)n2)ncc1C1CC1 [Example 57, 5-tert-butyl-3-[5-cyclopropyl-4-[[(2S)-1-methylpyrrolidin-2-yl]methoxy]pyridin-2-yl]-1,2,4-oxadiazole]
- EC50 (human CB1 receptors): > 10 µM
- EC50 (human CB2 receptors): 0.0134 µM

Structure (SMILES): CC(C)(C)c1nc(-c2cc(OCCF)c(C3CC3)cn2)no1 [Example 116, 5-tert-butyl-3-[5-cyclopropyl-4-(2-fluoroethoxy)pyridin-2-yl]-1,2,4-oxadiazole]
- EC50 (human CB1 receptors): > 10 µM
- EC50 (human CB2 receptors): 0.0155 µM

Structure (SMILES): CC(C)(C)c1nc(-c2cc(N3CCC4(COC4)C3)c(C3CC3)cn2)no1 [Example 76, 7-[2-(5-tert-butyl-1,2,4-oxadiazol-3-yl)-5-cyclopropylpyridin-4-yl]-2-oxa-7-azaspiro[3.4]octane]
- EC50 (human CB1 receptors): > 10 µM

Structure (SMILES): CC1(c2nc(-c3cc(OCC4CC4)c(C4CC4)cn3)no2)CC1 [Example 24, 3-[5-cyclopropyl-4-(cyclopropylmethoxy)pyridin-2-yl]-5-(1-methylcyclopropyl)-1,2,4-oxadiazole]
- EC50 (human CB1 receptors): 0.581 µM
- EC50 (human CB2 receptors): 0.0043 µM

Structure (SMILES): Cc1noc(-c2cc(OCC(F)(F)F)c(N3CC(F)(F)C3)cn2)n1 [Example 16, 5-[5-(3,3-difluoroazetidin-1-yl)-4-(2,2,2-trifluoroethoxy)pyridin-2-yl]-3-methyl-1,2,4-oxadiazole]
- EC50 (human CB1 receptors): > 10 µM
- EC50 (human CB2 receptors): 0.343 µM

Structure (SMILES): CC(C)(C)c1noc(-c2cc(OCC3CC3)c(C3CC3)cn2)n1 [Example 6, 3-tert-butyl-5-[5-cyclopropyl-4-(cyclopropylmethoxy)pyridin-2-yl]-1,2,4-oxadiazole]
- EC50 (human CB1 receptors): 0.0092 µM
- EC50 (human CB2 receptors): 0.001 µM

Structure (SMILES): CC(C)(C)c1nc(-c2cc(N3CC4(COC4)C3)c(C3CC3)cn2)no1 [Example 82, 6-[2-(5-tert-butyl-1,2,4-oxadiazol-3-yl)-5-cyclopropylpyridin-4-yl]-2-oxa-6-azaspiro[3.3]heptane]
- EC50 (human CB1 receptors): > 10 µM
- EC50 (human CB2 receptors): 0.0379 µM

Structure (SMILES): FC(F)(F)COc1cc(-c2nc(C3CC3)no2)ncc1C1CC1 [Example 7, 3-cyclopropyl-5-[5-cyclopropyl-4-(2,2,2-trifluoroethoxy)pyridin-2-yl]-1,2,4-oxadiazole]
- EC50 (human CB1 receptors): > 10 µM

Structure (SMILES): CC(C)(C)c1nc(-c2cc(OCC3CCCO3)c(C3CC3)cn2)no1 (centres unmarked) [Example 56, 5-tert-butyl-3-[5-cyclopropyl-4-(oxolan-2-ylmethoxy)pyridin-2-yl]-1,2,4-oxadiazole]
- EC50 (human CB1 receptors): > 10 µM
- EC50 (human CB2 receptors): 0.0447 µM

Structure (SMILES): CC(C)(C)c1nc(-c2cc(OCc3ccc(F)cc3)c(C3CC3)c(Cl)n2)no1 [Example 112, 5-tert-butyl-3-(6-chloro-5-cyclopropyl-4-(4-fluorobenzyloxy)pyridin-2-yl)-1,2,4-oxadiazole]
- EC50 (human CB1 receptors): 0.0732 µM

Structure (SMILES): c1c(C2=NC3(CCCCC3)CO2)ncc(C2CC2)c1OCC1CC1 [Example 22, 2-[5-cyclopropyl-4-(cyclopropylmethoxy)pyridin-2-yl]-3-oxa-1-azaspiro[4.5]dec-1-ene]
- EC50 (human CB2 receptors): 0.0042 µM
